What was measured:
EP4 [1] = molecular target: T1, EP4 (Homo sapiens, UniProt P35408); test: EP4 flipr functional assay; assay type: cell-based
From the text: (§1) U.S. patent application Ser. No. 11/553,143, filed on Oct. 26, 2006, incorporated by reference herein, describes the methods used to obtain the in vitro data in the table below.

EP4 [2] = molecular target: T1, EP4; test: EP4 binding (KI)
From the text: as §1

EP2 [3] = molecular target: T2, EP2 (Homo sapiens, UniProt P43116); test: EP2 flipr functional assay; assay type: cell-based
T2 sequence (P43116 whole entry): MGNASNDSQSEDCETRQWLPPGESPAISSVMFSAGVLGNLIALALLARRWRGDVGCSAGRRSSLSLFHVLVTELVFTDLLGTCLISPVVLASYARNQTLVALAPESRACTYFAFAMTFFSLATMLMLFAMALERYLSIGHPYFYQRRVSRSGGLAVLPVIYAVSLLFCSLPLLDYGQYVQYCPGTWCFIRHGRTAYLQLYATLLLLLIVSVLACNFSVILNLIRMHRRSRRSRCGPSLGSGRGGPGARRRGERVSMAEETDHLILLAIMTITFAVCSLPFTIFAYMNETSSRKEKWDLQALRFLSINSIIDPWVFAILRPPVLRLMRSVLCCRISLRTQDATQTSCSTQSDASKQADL
From the text: as §1

EP2 [4] = molecular target: T2, EP2; test: EP2 binding (KI)
From the text: as §1

EP2 [5] = molecular target: T2, EP2; test: EP2 cAMP assay; assay type: cell-based
From the text: as §1

hDP = molecular target: T3, hDP (Homo sapiens, UniProt Q13258); test: Other receptors functional assay, hDP; assay type: cell-based
T3 sequence (Q13258 1-359): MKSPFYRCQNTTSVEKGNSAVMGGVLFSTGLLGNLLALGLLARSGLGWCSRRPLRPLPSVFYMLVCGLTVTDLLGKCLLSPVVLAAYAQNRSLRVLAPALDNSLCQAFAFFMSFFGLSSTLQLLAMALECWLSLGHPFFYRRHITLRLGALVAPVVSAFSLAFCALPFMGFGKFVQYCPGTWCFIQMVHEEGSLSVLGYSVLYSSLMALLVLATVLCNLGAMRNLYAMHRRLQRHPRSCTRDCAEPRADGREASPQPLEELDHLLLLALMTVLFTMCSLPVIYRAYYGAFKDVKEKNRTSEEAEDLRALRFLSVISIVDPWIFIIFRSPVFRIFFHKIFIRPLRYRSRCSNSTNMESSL
From the text: as §1

T1 sequence (P35408 whole entry): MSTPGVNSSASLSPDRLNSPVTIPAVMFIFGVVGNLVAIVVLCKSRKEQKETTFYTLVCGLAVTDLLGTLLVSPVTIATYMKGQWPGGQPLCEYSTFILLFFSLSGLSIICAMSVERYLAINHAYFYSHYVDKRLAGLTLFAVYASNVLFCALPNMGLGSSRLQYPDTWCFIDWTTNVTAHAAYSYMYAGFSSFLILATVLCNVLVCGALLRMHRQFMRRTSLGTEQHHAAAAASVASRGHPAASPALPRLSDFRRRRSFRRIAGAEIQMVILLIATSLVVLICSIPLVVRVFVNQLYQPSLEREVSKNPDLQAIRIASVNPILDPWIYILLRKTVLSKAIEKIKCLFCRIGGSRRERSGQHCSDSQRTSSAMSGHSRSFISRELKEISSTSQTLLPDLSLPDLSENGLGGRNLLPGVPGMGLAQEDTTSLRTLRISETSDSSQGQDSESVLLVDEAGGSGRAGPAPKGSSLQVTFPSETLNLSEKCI

Row | EC50 (EP4 [1]) [µM] | Ki (EP4 [2]) [µM] | EC50 (EP2 [3]) [µM] | Ki (EP2 [4]) [µM] | EC50 (EP2 [5]) [µM] | EC50 (hDP) [µM] | SMILES
1 | > 10 | 7.99 | > 10 | 0.159 | 0.004 | – | O=C(O)c1ccc(COC[C@H]2CCC(=O)N2CCc2cc(Cl)cc(Cl)c2)s1 [(R)-5-(((1-(3,5-dichlorophenethyl)-5-oxopyrrolidin-2-yl)methoxy)methyl)thiophene-2-carboxylic acid]
2 | – | > 10 | 8.41 | 0.024 | 0.0022 | 6.22 | O=C(O)c1ccc(CCC[C@H]2CCC(=O)N2CCc2cc(Cl)cc(Cl)c2)s1 [(S)-5-(3-(1-(3,5-dichlorophenethyl)-5-oxopyrrolidin-2-yl)propyl)thiophene-2-carboxylic acid]

Reference: US7998998B2, “Therapeutic substituted lactams” (Allergan, Inc., priority 2007, dated 2011)
